Where a name gives a salt, the structure may show the parent alone. Read-outs that look alike come from different tables or passages of the source.
System: CGS 21680-induced catalepsy
Assay: Activity on CGS 21680-induced catalepsy
Assay type: in vivo, mice
Conditions: for inhibition in vivo at 10 mg/kg: Mus musculus, po, read-out: Remission ratio (%); for Total score: total catalepsy score of 10 mice (maximum 50 points; 40 points or less = positive), one hour after administration; for Number of animals showing remission: cases with catalepsy score of 4 points or less in 10 cases
Procedure: Parkinson's disease is a motor disorder based on degeneration and cell death of the nigrostriatal dopaminergic neurons. When CGS 21680 (adenosine A2A receptor agonist) is administered into the intracerebral ventricle, the inhibitory synaptic transmission of GABA in the medium sized spiny neurons in the corpus striatum is inhibited directly via the adenosine A2A receptor [Journal of Neuroscience, vol. 16, p. 605 (1996)]. Accordingly, it is concidered that the adenosine A2A receptor agonists positively regulate the output of the GABAergic neurons from the corpus striatum to the globus pallidus lateralis, and, as a result, catalepsy is induced by the administration of CGS 21680.
The test was carried out using ten 5-week age male ddY mice (22-25 g in body weight, Japan SLC) per group. CGS 21680 (produced by RBI Co) was dissolved in physiological saline (produced by Otsuka Pharmaceutical Co., Ltd.), and 10 μg/20 μL of the solution was injected into mouse intracerebral ventricle. Each test compound was used by suspending it in distilled water containing 0.3% of polyoxylene (20) sorbitan monooleate (referred to as “Tween 80” hereinafter) (produced by Otsuka Pharmaceutical Co., Ltd.). The suspension containing each test compound or a solution containing no test Compound (distilled water containing 0.3% of Tween 80; used as a control) was orally administered (0.1 mL per 10 g of mouse body weight) 30 minutes before the injection of CGS 21680 into the intracerebral ventricle. One hour after the administration of the each test compound, only forelimbs or only hindlimbs of each mouse were laid on a vertically arranged stand made of acryl and having a size of 4.5 cm in height and 1.0 cm in width to measure catalepsy symptoms. All of the test compounds were administered orally in a dose of 10 mg/kg.
The criteria of the catalepsy score are shown below.
The effect was decided by a total catalepsy score of 10 mice in one group (the maximum score: 50 points). When the total score was 40 points or less, the activity of the compounds was decided positive. The number of the animals showing remission of catalepsy was expressed by the number of cases showing a catalepsy score of 4 points or less in 10 cases. The catalepsy remission ratio was expressed as the percentage of the total score in the test compound-administered group to the total score in the control group.

[1] = from total score of test group and control group, 10 mg/kg orally

| SMILES | inhibition in vivo at 10 mg/kg [1] [%] | Total score (10 mg/kg orally) | inhibition in vivo at 10 mg/kg [%] | Number of animals showing remission (10 mg/kg orally) | Remission ratio (%) [1] [%] |
| --- | --- | --- | --- | --- | --- |
| Nc1nc(CO)cc2nc(-c3ccco3)nn12 [Compound 22, 5-Amino-2-(2-furyl)-7-hydroxymethyl[1,2,4]triazolo[1,5-c]-pyrimidine] | 84 | 8 |  |  |  |
| CCOC1(c2cc3nc(-c4ccco4)nn3c(N)n2)CC1 [Compound 26, 5-Amino-7-(1-ethoxycyclopropyl)-2-(2-furyl)[1,2,4]triazolo [1,5-c]pyrimidine] | 82 | 9 |  |  |  |
| CC(C)(O)c1ccccc1OCc1cc2nc(-c3ccco3)nn2c(N)n1 [Compound 29, 5-Amino-7-[2-(1-hydroxy-1-methylethyl)phenoxymethyl]-2-(2-furyl)[1,2,4]triazolo[1,5-c]pyrimidine] | 88 | 6 |  |  |  |
| COc1ccc(CN(C)Cc2cc3nc(-c4ccco4)nn3c(N)n2)cc1OC [Compound 35, 5-Amino-7-[(N-methyl-3,4-dimethoxybenzylamino)methyl]-2-(2-furyl)[1,2,4]triazolo[1,5-c]pyrimidine monohydrochloride] |  | 5 | 90 |  |  |
| Nc1nc(-c2ccccn2)cc2nc(-c3ccco3)nn12 [Compound 52, 5-Amino-2-(2-furyl)-7-(2-pyridyl)[1,2,4]triazolo[1,5-c]-pyrimidine] | 84 | 8 |  |  |  |
| Nc1nc(-c2cccnc2)cc2nc(-c3ccco3)nn12 [Compound 53, 5-Amino-2-(2-furyl)-7-(3-pyridyl) [1,2,4]triazolo[1,5-c]-pyrimidine] | 84 | 8 |  |  |  |
| Nc1nc(-c2cc[nH]n2)cc2nc(-c3ccco3)nn12 [Compound 60, 5-Amino-2-(2-furyl)-7-(1H-pyrazol-3-yl)[1,2,4]triazolo[1,5-c]pyrimidine] | 98 | 1 |  |  |  |
| Nc1nc(-c2ccc(CO)cn2)cc2nc(-c3ccco3)nn12 [Compound 62, 5-Amino-2-(2-furyl)-7-(3-hydroxymethylpyridin-6-yl)[1,2,4]-triazolo[1,5-c]pyrimidine] | 80 | 10 |  |  |  |
| CC(C)(O)c1ccc(-c2cc3nc(-c4ccco4)nn3c(N)n2)cc1 [Compound 63, 5-Amino-2-(2-furyl)-7-[4-(1-hydroxy-1-methylethyl)phenyl]-[1,2,4]triazolo[1,5-c]pyrimidine] | 98 | 1 |  |  |  |
| Nc1nc(C2=CCN(Cc3csnn3)CC2)cc2nc(-c3ccco3)nn12 [Compound 72, 5-Amino-2-(2-furyl)-7-[1-(1,2,3-thiadiazol-4-yl)methyl-1,2,3,6-tetrahydropyridin-4-yl][1,2,4]triazolo[1,5-c]-pyrimidine] |  | 0 | 100 |  |  |
| Nc1nc(C2=CCN(CCO)CC2)cc2nc(-c3ccco3)nn12 [Compound 75, 5-Amino-2-(2-furyl)-7-[1-(2-hydroxyethyl)-1,2,3,6-tetra-hydropyridin-4-yl][1,2,4]triazolo[1,5-c]pyrimidine] |  | 2 | 96 |  |  |
| COc1ccc(CNC(=O)c2cc3nc(-c4ccco4)nn3c(N)n2)cc1OC [Compound 80, 5-Amino-2-(2-furyl)[1,2,4]triazolo[1,5-c]pyrimidine-7-carboxylic acid (3,4-dimethoxybenzyl)amide] | 88 | 6 |  |  |  |
| COc1ccc(CN(C)C(=O)c2cc3nc(-c4ccco4)nn3c(N)n2)cc1OC [Compound 81, 5-Amino-2-(2-furyl)[1,2,4]triazolo[1,5-c]pyrimidine-7-carboxylic acid [N-(3,4-dimethoxybenzyl)-N-methyl]amide] | 96 | 2 |  |  |  |
| Nc1nc(C(=O)NCCc2ccccn2)cc2nc(-c3ccco3)nn12 [Compound 84, 5-Amino-2-(2-furyl) [1,2,4]triazolo[1,5-c]pyrimidine-7-carboxylic acid [2-(2-pyridyl)ethyl]amide] | 92 | 4 |  |  |  |
| COCCNC(=O)c1cc2nc(-c3ccco3)nn2c(N)n1 [Compound 86, 5-Amino-2-(2-furyl)[1,2,4]triazolo[1,5-c]pyrimidine-7-carboxylic acid (2-methoxyethyl)amide] | 100 | 0 |  |  |  |
| COCCN(C)C(=O)c1cc2nc(-c3ccco3)nn2c(N)n1 [Compound 87, 5-Amino-2-(2-furyl)[1,2,4]triazolo[1,5-c]pyrimidine-7-carboxylic acid [N-(2-methoxyethyl)-N-methyl]amide] | 82 | 9 |  |  |  |
| Nc1nc(C(=O)NCc2ccccc2)cc2nc(-c3ccco3)nn12 [Compound 91, 5-Amino-2-(2-furyl)[1,2,4]triazolo[1,5-c]pyrimidine-7-carboxylic acid benzylamide] | 94 | 3 |  |  |  |
| Nc1nc(C(=O)NCCCN2CCCC2=O)cc2nc(-c3ccco3)nn12 [Compound 92] | 82 | 9 |  |  |  |
| CC(C)N(Cc1ccccc1)C(=O)c1cc2nc(-c3ccco3)nn2c(N)n1 [Compound 100, 5-Amino-2-(2-furyl)[1,2,4]triazolo[1,5-c]pyrimidine-7-carboxylic acid (N-benzyl-N-isopropyl)amide] |  | 15 |  | 8 | 64 |
| CCN(Cc1ccncc1)C(=O)c1cc2nc(-c3ccco3)nn2c(N)n1 [Compound 102, 5-Amino-2-(2-furyl)[1,2,4]triazolo[1,5-c]pyrimidine-7-carboxylic acid [N-ethyl-N-(4-pyridylmethyl)]amide] | 92 | 4 |  |  |  |
| CN(Cc1cccnc1)C(=O)c1cc2nc(-c3ccco3)nn2c(N)n1 [Compound 105, 5-Amino-2-(2-furyl)[1,2,4]triazolo[1,5-c]pyrimidine-7-carboxylic acid [N-methyl-N-(3-pyridylmethyl)]amide] | 82 | 9 |  |  |  |
| CN(C(=O)c1cc2nc(-c3ccco3)nn2c(N)n1)c1ccc(Cl)nc1 [Compound 118, 5-Amino-2-(2-furyl)[1,2,4]triazolo[1,5-c]pyrimidine-7-carboxylic acid [N-(6-chloropyridin-3-yl)-N-methyl]amide] | 94 | 3 |  |  |  |
| CN(Cc1ccc(F)cc1)C(=O)c1cc2nc(-c3ccco3)nn2c(N)n1 [Compound 121, 5-Amino-2-(2-furyl)[1,2,4]triazolo[1,5-c]pyrimidine-7-carboxylic acid [N-(4-fluorobenzyl)-N-methyl]amide monohydrochloride] | 72 | 14 |  |  |  |
| CCN(Cc1cccnc1Cl)C(=O)c1cc2nc(-c3ccco3)nn2c(N)n1 [Compound 129, 5-Amino-2-(2-furyl)[1,2,4]triazolo[1,5-c]pyrimidine-7-carboxylic acid [N-ethyl-N-(2-chloropyridin-3-ylmethyl)]-amide] | 90 | 5 |  |  |  |
| Cc1ccc(CN(C)C(=O)c2cc3nc(-c4ccco4)nn3c(N)n2)cn1 [Compound 130, 5-Amino-2-(2-furyl)[1,2,4]triazolo[1,5-c]pyrimidine-7-carboxylic acid [N-methyl-N-(6-methylpyridin-3-ylmethyl)]-amide] | 70 | 15 |  |  |  |
| CN(CCc1cccnc1)C(=O)c1cc2nc(-c3ccco3)nn2c(N)n1 [Compound 138, 5-Amino-2-(2-furyl)[1,2,4]triazolo[1,5-c]pyrimidine-7-carboxylic acid {N-methyl-N-[2-(3-pyridyl)ethyl]}amide] | 78 | 11 |  |  |  |
| COC1CCN(C(=O)c2cc3nc(-c4ccco4)nn3c(N)n2)CC1 [Compound 144, 5-Amino-2-(2-furyl)[1,2,4]triazolo[1,5-c]pyrimidin-7-yl 4-methoxypiperidino ketone] | 84 | 7 |  |  |  |
| COC[C@H]1CCCN1C(=O)c1cc2nc(-c3ccco3)nn2c(N)n1 [Compound 149, (2R)-(2-Methoxymethyl)pyrrolidinyl 5-amino-2-(2-furyl)-7-[1,2,4]triazolo[1,5-c]pyrimidin-7-yl ketone] |  | 15 |  | 7 | 70 |
